For this assay, the target named is T1, GABA A α5 (Homo sapiens, UniProt P18507+P31644).
T1 construct: expressed in transfected cells; host or cells: HEK293 cells, transiently transfected; membranes prepared from cell pellets
Kind of assay: [3H]flumazenil competition binding, human GABA A α5β3γ2 receptors in HEK293 cell membranes. The note with it: human receptor α5β3γ2 transiently transfected in HEK293; 0.5 nM [3H]flumazenil; 1 hour at 4° C.; means of two determinations; read-out: hKi GABA A α5. The gist of the method: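 Competition with [3H]flumazenil for binding to membranes of HEK293 cells transiently expressing human α5β3γ2, in Krebs-tris buffer pH 7.5. Incubated to equilibrium 1 h at 4 °C, filtered and scintillation-counted; Ki values are means of two determinations.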

For `CCCCc1noc(C)c1COc1cc(C(=O)NN2CCOCC2)[nH]n1` [Example 39, 5-(3-Butyl-5-methyl-isoxazol-4-ylmethoxy)-2H-pyrazole-3-carboxylic acid morpholin-4-ylamide], the Ki was determined as 5.8 nM.

Take `Cc1onc(-c2ccc(F)cc2)c1COc1cc(C(=O)NN(C)C)[nH]n1` [Example 11, 5-[3-(4-Fluoro-phenyl)-5-methyl-isoxazol-4-ylmethoxy]-2H-pyrazole-3-carboxylic acid N′,N′-dimethyl-hydrazide]: the Ki was found to be 4.9 nM.

Turning to `Cc1onc(-c2ccc(F)cn2)c1CNc1cc(C(=O)NCC2CC2)n(C)n1` [Example 166, N-(Cyclopropylmethyl)-3-((3-(5-fluoropyridin-2-yl)-5-methylisoxazol-4-yl)methylamino)-1-methyl-1H-pyrazole-5-carboxamide], the Ki amounted to 55.6 nM.

As to `Cc1onc(-c2ccc(F)cc2)c1COc1cc(C(=O)N[C@@H]2CCCC2O)n(C)n1` (single isomer, unassigned; (+)) [Example 74], the Ki turned out to be 2 nM.

Turning to `O=C(NN1CCOCC1)c1cc(OCc2conc2-c2ccc(F)cn2)n[nH]1` [Example 25, 5-[3-(5-Fluoro-pyridin-2-yl)-isoxazol-4-ylmethoxy]-2H-pyrazole-3-carboxylic acid morpholin-4-ylamide], the Ki was 13.6 nM.

As for `CCCCc1noc(CO)c1COc1cc(C(=O)NC2CCC2)n(C)n1` [Example 113, 5-(3-Butyl-5-hydroxymethyl-isoxazol-4-ylmethoxy)-2-methyl-2H-pyrazole-3-carboxylic acid cyclobutylamide], the Ki was determined as 39.6 nM.

Take `Cc1onc(-c2ccc(F)cc2)c1COc1cc(C(=O)NN2CCCC2)n(C)n1` [Example 51, 5-[3-(4-Fluoro-phenyl)-5-methyl-isoxazol-4-ylmethoxy]-2-methyl-2H-pyrazole-3-carboxylic acid pyrrolidin-1-ylamide]: the Ki was found to be 11.4 nM.

For `CCCCc1noc(C)c1COc1cc(C(=O)NC2CCOCC2)[nH]n1` [Example 26, 5-(3-Butyl-5-methyl-isoxazol-4-ylmethoxy)-2H-pyrazole-3-carboxylic acid (tetrahydropyran-4-yl)-amide], the Ki came to 2.3 nM.

Turning to `Cc1onc(C2CCOCC2)c1COc1cc(C(=O)NC2CCOCC2)n(C)n1` [Example 90, 2-Methyl-5-[5-methyl-3-(tetrahydro-pyran-4-yl)-isoxazol-4-ylmethoxy]-2H-pyrazole-3-carboxylic acid (tetrahydro-pyran-4-yl)-amide], the Ki was 24.4 nM.

In the case of `Cn1nc(OCc2c(-c3ccc(F)cc3)noc2CO)cc1C(=O)NCC(F)(F)C(F)(F)F` [Example 95, 5-[3-(4-Fluoro-phenyl)-5-hydroxymethyl-isoxazol-4-ylmethoxy]-2-methyl-2H-pyrazole-3-carboxylic acid (2,2,3,3,3-pentafluoro-propyl)-amide], the Ki worked out at 8 nM.

Consider `Cc1onc(-c2ccc(F)cc2)c1/C=C/c1cc(C(=O)N2CCOCC2)n(C)n1` [Example 129, (5-{(E)-2-[3-(4-Fluoro-phenyl)-5-methyl-isoxazol-4-yl]vinyl}-2-methyl-2H-pyrazol-3-yl)-morpholin-4-yl-methanone], for which the Ki was 11.8 nM.

For `CCCCc1noc(C)c1COc1cc(C(=O)NC(C)C)n(C)n1` [Example 86, 5-(3-Butyl-5-methyl-isoxazol-4-ylmethoxy)-2-methyl-2H-pyrazole-3-carboxylic acid isopropylamide], the Ki was 39.2 nM.

On to `Cc1onc(-c2ccc(F)cn2)c1COc1cc(C(=O)NCCO)n(C)n1` [Example 83, 5-[3-(5-Fluoro-pyridin-2-yl)-5-methyl-isoxazol-4-ylmethoxy]-2-methyl-2H-pyrazole-3-carboxylic acid (2-hydroxy-ethyl)-amide], for which the Ki is 11 nM.

As to `Cc1onc(-c2ccc(F)cc2)c1CNc1cc(C(=O)NC2CCOCC2)[nH]n1` [Example 156, 5-{[3-(4-Fluoro-phenyl)-5-methyl-isoxazol-4-ylmethyl]-amino}-2H-pyrazole-3-carboxylic acid (tetrahydro-pyran-4-yl)-amide], the Ki stood at 3.9 nM.

Regarding `Cc1onc(-c2ccc(F)cc2)c1/C=C/c1cc(C(=O)NCC(F)(F)F)n(C)n1` [Example 128, 5-{(E)-2-[3-(4-Fluoro-phenyl)-5-methyl-isoxazol-4-yl]vinyl}-2-methyl-2H-pyrazole-3-carboxylic acid (2,2,2-trifluoro-ethyl)-amide], the Ki came out at 1.2 nM.

For the molecule `Cc1onc(-c2ccc(F)cc2)c1CNc1cc(C(=O)NCC(C)(C)O)n(C)n1` [Example 144, 5-{[3-(4-Fluoro-phenyl)-5-methyl-isoxazol-4-ylmethyl]-amino}-2-methyl-2H-pyrazole-3-carboxylic acid (2-hydroxy-2-methyl-propyl)-amide], the Ki came out at 29.3 nM.

Consider `CCNC(=O)c1cc(/C=C/c2c(-c3ccc(F)cc3)noc2C)nn1C` [Example 123, 5-{(E)-2-[3-(4-Fluoro-phenyl)-5-methyl-isoxazol-4-yl]vinyl}-2-methyl-2H-pyrazole-3-carboxylic acid ethylamide], for which the Ki worked out at 1.3 nM.

As to `Cc1onc(-c2ccc(F)cc2)c1CNc1cc(C(=O)N2CC3(COC3)C2)n(C)n1` [Example 149, (5-{[3-(4-Fluoro-phenyl)-5-methyl-isoxazol-4-ylmethyl]-amino}-2-methyl-2H-pyrazol-3-yl)-(2-oxa-6-aza-spiro[3.3]hept-6-yl)-methanone], the Ki was 67.5 nM.

With `Cc1onc(-c2ccccc2)c1COc1cc(C(=O)NC(C)C)n(C)n1` [Example 46, 2-Methyl-5-(5-methyl-3-phenyl-isoxazol-4-ylmethoxy)-2H-pyrazole-3-carboxylic acid isopropylamide], the Ki came to 40.9 nM.

Turning to `Cc1onc(-c2ccc(F)cc2)c1COc1cc(C(=O)NN(C)C)n(C)n1` [Example 48, 5-[3-(4-Fluoro-phenyl)-5-methyl-isoxazol-4-ylmethoxy]-2-methyl-2H-pyrazole-3-carboxylic acid N′,N′-dimethyl-hydrazide], the Ki was determined as 23.3 nM.

Consider `Cc1onc(-c2ccc(F)cc2)c1/C=C/c1cc(C(=O)NCC(F)(F)F)[nH]n1` [Example 133, 5-{(E)-2-[3-(4-Fluoro-phenyl)-5-methyl-isoxazol-4-yl]vinyl}-2H-pyrazole-3-carboxylic acid (2,2,2-trifluoro-ethyl)-amide], for which the Ki is 4.1 nM.

Turning to `Cc1onc(-c2ccccc2)c1COc1cc(C(=O)NN(C)C)n(C)n1` [Example 47, 2-Methyl-5-(5-methyl-3-phenyl-isoxazol-4-ylmethoxy)-2H-pyrazole-3-carboxylic acid N′,N′-dimethyl-hydrazide], the Ki turned out to be 50.3 nM.

For the molecule `Cc1onc(-c2ccc(F)cc2)c1/C=C/c1cc(C(=O)N2CCS(=O)(=O)CC2)n(C)n1` [Example 127, (1,1-Dioxo-1,6-thiomorpholin-4-yl)-(5-{(E)-2-[3-(4-fluoro-phenyl)-5-methyl-isoxazol-4-yl]-vinyl}-2-methyl-2H-pyrazol-3-yl)-methanone], the Ki worked out at 29.3 nM.

Turning to `Cc1onc(-c2ccccn2)c1COc1cc(C(=O)NC(C)CO)nn1C` (stereo in doubt) [Example 114, 1-Methyl-5-(5-methyl-3-pyridin-2-yl-isoxazol-4-ylmethoxy)-1H-pyrazole-3-carboxylic acid ((S)-2-hydroxy-1-methyl-ethyl)-amide], the Ki was 16.2 nM.

Turning to `Cc1onc(-c2ccc(F)cc2)c1COc1cc(C(=O)Nc2ccn(C)n2)n(C)n1` [Example 63, 5-[3-(4-Fluoro-phenyl)-5-methyl-isoxazol-4-ylmethoxy]-2-methyl-2H-pyrazole-3-carboxylic acid (1-methyl-1H-pyrazol-3-yl)-amide], the Ki turned out to be 13.1 nM.

`Cc1onc(-c2ccccc2)c1COc1cc(C(N)=O)n(C)n1` [Example 45, 2-Methyl-5-(5-methyl-3-phenyl-isoxazol-4-ylmethoxy)-2H-pyrazole-3-carboxylic acid amide]: the Ki amounted to 47.3 nM.

Regarding `CCCCc1noc(C)c1COc1cc(C(=O)NN2CCCCC2)[nH]n1` [Example 41, 5-(3-Butyl-5-methyl-isoxazol-4-ylmethoxy)-2H-pyrazole-3-carboxylic acid piperidin-1-ylamide], the Ki turned out to be 27.2 nM.

Turning to `Cc1onc(-c2ccccc2)c1/C=C\c1cc(C(=O)NC(C)C)[nH]n1` [Example 119, 5-[(Z)-2-(5-Methyl-3-phenyl-isoxazol-4-yl)-vinyl]-2H-pyrazole-3-carboxylic acid iso-propylamide], the Ki was 20.2 nM.

Regarding `Cn1nc(OCc2c(-c3ccc(Cl)cc3)noc2CO)cc1C(=O)N1CCC(F)(F)CC1` [Example 111, {5-[3-(4-Chloro-phenyl)-5-hydroxymethyl-isoxazol-4-ylmethoxy]-2-methyl-2H-pyrazol-3-yl}-(4,4-difluoro-piperidin-1-yl)-methanone], the Ki amounted to 52.5 nM.

For the molecule `Cc1onc(-c2ccc(F)cc2)c1COc1cc(C(=O)NCCO)n(C)n1` [Example 62, 5-[3-(4-Fluoro-phenyl)-5-methyl-isoxazol-4-ylmethoxy]-2-methyl-2H-pyrazole-3-carboxylic acid (2-hydroxy-ethyl)-amide], the Ki is 7.1 nM.

Regarding `CC(C)NC(=O)c1cc(OCc2c(-c3ccc(Cl)cc3)noc2CO)nn1C` [Example 100, 5-[3-(4-Chloro-phenyl)-5-hydroxymethyl-isoxazol-4-ylmethoxy]-2-methyl-2H-pyrazole-3-carboxylic acid isopropylamide], the Ki was determined as 5.8 nM.

`Cc1onc(-c2ccc(F)cn2)c1COc1cc(C(=O)NC2CCOC2)n(C)n1` (racemic) [Example 81, Rac-5-[3-(5-fluoro-pyridin-2-yl)-5-methyl-isoxazol-4-ylmethoxy]-2-methyl-2H-pyrazole-3-carboxylic acid (tetrahydro-furan-3-yl)-amide]: the Ki stood at 5.9 nM.

On to `CCCCc1noc(C)c1COc1cc(C(=O)NN(C)C)[nH]n1` [Example 38, 5-(3-Butyl-5-methyl-isoxazol-4-ylmethoxy)-2H-pyrazole-3-carboxylic acid N′,N′-dimethylhydrazide], for which the Ki stood at 38.7 nM.
